Laboratory results published in patent EP4745135A1 (Gluetacs Therapeutics (Shanghai) Co., Ltd., priority 2023, dated 2025).

How the values were obtained:
[1] = test system: Human T lymphocytic leukemia cell line: Jurkat; test: Tumor cell proliferation inhibition (CellTiter-Meiluncell luminescent cell viability assay); conditions: 96 h
Experimental: (§1) The tumor cells used herein were cultured in a cell culture medium listed in table 2 at 37°C in an incubator with 5% CO2. Prior to experimentation, all cell lines used were correctly identified by STR profiling, and tested negative for mycoplasma contamination using a mycoplasma detection kit through routine screenings.
(§2) The IC50 values of the compounds of the present disclosure (including the compounds in Table 1 and Examples) were determined using the CellTiter-Meiluncell Luminescent Cell Viability Assay Kit from Dalian Meilun Biotech Co., Ltd. The detailed procedure is as follows: Tumor cells were seeded in 96-well cell culture plates at the densities specified in Table 3. On the following day, the test compounds of the present disclosure were subjected to serial dilution. The dilution can be performed according to one of the following two methods: • (1) The first dilution method: The test compounds of the present disclosure (including the compounds in Table 1 and Examples) were subjected to 5-fold serial dilutions starting from a highest concentration of 2000 µM, resulting in a total of 9 concentrations from high to low (2000, 400, 80, 16, 3.2, 0.64, 0.128, 0.0256, 0.00512 µM). Subsequently, 0.5 µL of the test compound dilution was transferred into the 96-well plate containing the cells, with each well containing 100 µL of cell culture medium. […] Into the 96-well plate, the diluted test compounds and corresponding detection reagents were added, resulting in final test compound concentrations of 500 nM and 10 nM, respectively. The experimental procedure is described below using the diluted 2 µM test compound as an example.
(§3) 0.5 µL of the aforementioned diluted compound of the present disclosure (including the compounds in Table 1 and Examples) was added to the seeded cells in 100 µL of medium, yielding a final test compound concentration of 10 nM. After the cells were treated with the compounds of the present disclosure for a specified period, the cell viability assay reagent was added to the culture medium according to the kit's instructions to determine cell viability. […] All controls were treated using the same procedure as the compounds of the present disclosure. The growth inhibition curves for the compounds of the present disclosure were plotted using Prism GraphPad software, and the IC50 values were calculated therefrom.

[2] = test system: Human acute myeloid leukemia cell line: Kasumi-1; test: as above; conditions: Kasumi 1, 96 h
[3] = molecular target: T1, human Cereblon WT GST-tagged protein (Homo sapiens, UniProt Q96SW2); test: CRBN-binding affinity, HTRF (CEREBLON BINDING kit); conditions: for inhibition at 0.5 µM: read-out: Inhibition Rate at 0.5 µM (%); for inhibition at 2 µM: read-out: Inhibition Rate at 2 µM (%)
T1 construct: purchased CISBIO 64BDCRBNPEH

[4] = test system: Human multiple myeloma cell (MM.1S); test: Tumor cell proliferation inhibition (CellTiter-Meiluncell luminescent cell viability assay); conditions: Homo sapiens, MM1.S, 96 h
Experimental: as §1, §2, §3

GSPT1 = test: Western blot, degradation of substrate protein in hPBMCs; format: cell-based, Human; conditions: 24 hours treatment, compounds at 50 nM and 500 nM (concentration behind the class not stated)
[5] = test system: Human acute T lymphocytic leukemia cell (Molt4); test: Tumor cell proliferation inhibition (CellTiter-Meiluncell luminescent cell viability assay); conditions: MOLT-4, 96 h
[6] = test system: Human multiple myeloma peripheral blood B lymphocyte cell (RPMI-8226); test: as above; conditions: RPMI-8226, 96 h
IKZF2 = molecular target: T2, IKZF2 (Homo sapiens, UniProt Q96SW2+Q9UKS7); test: Western blot, degradation of substrate protein in hPBMCs; format: cell-based; conditions: 24 hours treatment, compounds at 50 nM and 500 nM (concentration behind the class not stated)
T2 construct: effects of the compounds of the present disclosure on the expression of target proteins in cells; endogenous in cells; host or cells: human PBMCs (Milecell Biotechnologies)

IKZF3 = molecular target: T3, IKZF3 (Homo sapiens, UniProt Q96SW2+Q9UKT9); test: as above; format: cell-based; conditions: 24 hours treatment, compounds at 50 nM and 500 nM (concentration behind the class not stated)
T3 construct: effects of the compounds of the present disclosure on the expression of target proteins in cells; endogenous in cells; host or cells: human PBMCs (Milecell Biotechnologies)

WEE1 = molecular target: T4, WEE1 (Homo sapiens, UniProt P30291+Q96SW2); test: as above; format: cell-based; conditions: 24 hours treatment, compounds at 50 nM and 500 nM (concentration behind the class not stated)
T4 construct: effects of the compounds of the present disclosure on the expression of target proteins in cells; endogenous in cells; host or cells: human PBMCs (Milecell Biotechnologies)

CK1α = molecular target: T5, CK1α (Homo sapiens, UniProt P48729+Q96SW2); test: as above; format: cell-based; conditions: 24 hours treatment, compounds at 50 nM and 500 nM (concentration behind the class not stated)
T5 construct: effects of the compounds of the present disclosure on the expression of target proteins in cells; endogenous in cells; host or cells: human PBMCs (Milecell Biotechnologies)

IKZF1 = molecular target: T6, IKZF1 (Homo sapiens, UniProt Q13422+Q96SW2); test: as above; format: cell-based; conditions: 24 hours treatment, compounds at 50 nM and 500 nM (concentration behind the class not stated)
T6 construct: effects of the compounds of the present disclosure on the expression of target proteins in cells; endogenous in cells; host or cells: human PBMCs (Milecell Biotechnologies)

[7] = test system: Human myeloid monocytic leukemia cell (MV-4-11); test: Tumor cell proliferation inhibition (CellTiter-Meiluncell luminescent cell viability assay); conditions: MV4-11, 96 h
[8] = test system: Human breast cancer cell (MCF-7); test: as above; conditions: MCF7, 96 h; for inhibition at 0.01 µM: read-out: Inhibition Rate at 10 nM (%); for inhibition at 0.5 µM: read-out: Inhibition Rate at 500 nM (%)
Experimental: as §1, §2, §3

[9] = test system: Human T cell acute lymphoblastic leukemia cell (CCRF-CEM); test: as above; conditions: 96 h
Experimental: as §1, §2, §3

[10] = test system: Human monocytic leukemia cell line: THP-1; test: as above; conditions: THP-1, 96 h; for inhibition at 0.01 µM: read-out: Inhibition Rate at 10 nM (%); for inhibition at 0.5 µM: read-out: Inhibition Rate at 500 nM (%)
Experimental: as §1, §2, §3

[11] = test system: Human colon cancer cell line: SW620; test: as above; conditions: SW-620, 96 h; for inhibition at 0.01 µM: read-out: Inhibition Rate at 10 nM (%); for inhibition at 0.5 µM: read-out: Inhibition Rate at 500 nM (%)
Experimental: as §1, §2, §3

[12] = test system: Human malignant melanoma cell line: A375; test: as above; conditions: A-375, 96 h; for inhibition at 0.01 µM: read-out: Inhibition Rate at 10 nM (%); for inhibition at 0.5 µM: read-out: Inhibition Rate at 500 nM (%)
Experimental: as §1, §2, §3

[13] = read-out: Inhibition Rate at 10 nM (%)
[14] = read-out: Inhibition Rate at 500 nM (%)

T3 sequence (Q9UKT9 whole entry): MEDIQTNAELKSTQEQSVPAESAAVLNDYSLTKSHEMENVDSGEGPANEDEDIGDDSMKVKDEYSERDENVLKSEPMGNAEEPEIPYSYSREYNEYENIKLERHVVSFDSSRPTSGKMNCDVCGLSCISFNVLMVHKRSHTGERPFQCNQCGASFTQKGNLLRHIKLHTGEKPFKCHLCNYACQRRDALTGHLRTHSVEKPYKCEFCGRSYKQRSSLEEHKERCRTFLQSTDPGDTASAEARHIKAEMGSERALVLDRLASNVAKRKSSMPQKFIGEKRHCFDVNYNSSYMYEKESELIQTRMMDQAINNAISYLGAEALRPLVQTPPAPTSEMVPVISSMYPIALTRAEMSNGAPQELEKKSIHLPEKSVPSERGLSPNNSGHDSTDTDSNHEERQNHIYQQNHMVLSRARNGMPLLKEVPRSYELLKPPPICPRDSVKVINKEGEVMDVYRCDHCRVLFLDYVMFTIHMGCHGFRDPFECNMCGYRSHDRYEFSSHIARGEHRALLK
T3 sequence (Q96SW2 whole entry): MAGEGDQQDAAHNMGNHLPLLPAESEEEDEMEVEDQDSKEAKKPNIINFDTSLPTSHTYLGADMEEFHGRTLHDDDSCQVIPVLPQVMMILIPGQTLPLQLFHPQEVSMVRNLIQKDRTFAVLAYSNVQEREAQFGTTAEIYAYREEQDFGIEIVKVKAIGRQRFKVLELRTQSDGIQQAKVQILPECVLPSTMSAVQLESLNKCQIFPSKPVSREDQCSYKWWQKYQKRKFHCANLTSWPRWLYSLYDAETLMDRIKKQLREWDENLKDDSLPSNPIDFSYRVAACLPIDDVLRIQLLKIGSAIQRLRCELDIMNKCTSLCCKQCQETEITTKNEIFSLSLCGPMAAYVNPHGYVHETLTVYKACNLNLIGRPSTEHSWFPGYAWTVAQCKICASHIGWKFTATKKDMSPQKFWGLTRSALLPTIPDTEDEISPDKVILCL
T3 sequence (Q16531 whole entry partner): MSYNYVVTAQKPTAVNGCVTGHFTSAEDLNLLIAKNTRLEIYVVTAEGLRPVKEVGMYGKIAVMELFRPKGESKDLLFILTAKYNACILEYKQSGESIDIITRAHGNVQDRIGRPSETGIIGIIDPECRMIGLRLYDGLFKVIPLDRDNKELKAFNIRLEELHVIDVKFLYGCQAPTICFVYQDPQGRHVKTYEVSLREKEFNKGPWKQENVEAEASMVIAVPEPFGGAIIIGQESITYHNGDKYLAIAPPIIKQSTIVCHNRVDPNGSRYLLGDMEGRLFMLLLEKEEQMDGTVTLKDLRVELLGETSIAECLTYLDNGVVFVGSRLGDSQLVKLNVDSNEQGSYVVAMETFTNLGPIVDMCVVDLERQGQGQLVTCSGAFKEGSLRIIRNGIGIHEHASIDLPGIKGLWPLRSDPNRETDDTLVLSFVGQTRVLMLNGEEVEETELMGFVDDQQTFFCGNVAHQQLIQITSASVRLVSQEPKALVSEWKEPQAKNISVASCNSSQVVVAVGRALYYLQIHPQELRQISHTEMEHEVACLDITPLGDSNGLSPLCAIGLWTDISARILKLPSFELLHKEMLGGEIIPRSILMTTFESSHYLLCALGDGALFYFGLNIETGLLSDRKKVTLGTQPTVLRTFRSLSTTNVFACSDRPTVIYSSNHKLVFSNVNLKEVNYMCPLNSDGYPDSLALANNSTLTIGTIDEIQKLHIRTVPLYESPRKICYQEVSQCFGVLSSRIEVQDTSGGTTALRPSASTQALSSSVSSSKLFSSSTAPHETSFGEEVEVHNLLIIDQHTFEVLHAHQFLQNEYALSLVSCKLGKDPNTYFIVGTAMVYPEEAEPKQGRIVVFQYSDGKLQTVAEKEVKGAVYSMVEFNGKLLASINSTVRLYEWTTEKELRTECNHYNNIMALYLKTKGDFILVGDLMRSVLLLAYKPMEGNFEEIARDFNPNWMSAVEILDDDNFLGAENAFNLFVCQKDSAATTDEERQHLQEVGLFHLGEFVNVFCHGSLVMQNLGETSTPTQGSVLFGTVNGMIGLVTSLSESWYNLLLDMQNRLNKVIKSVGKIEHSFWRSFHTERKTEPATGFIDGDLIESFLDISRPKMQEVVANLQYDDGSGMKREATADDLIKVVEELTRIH
T6 sequence (Q13422 whole entry): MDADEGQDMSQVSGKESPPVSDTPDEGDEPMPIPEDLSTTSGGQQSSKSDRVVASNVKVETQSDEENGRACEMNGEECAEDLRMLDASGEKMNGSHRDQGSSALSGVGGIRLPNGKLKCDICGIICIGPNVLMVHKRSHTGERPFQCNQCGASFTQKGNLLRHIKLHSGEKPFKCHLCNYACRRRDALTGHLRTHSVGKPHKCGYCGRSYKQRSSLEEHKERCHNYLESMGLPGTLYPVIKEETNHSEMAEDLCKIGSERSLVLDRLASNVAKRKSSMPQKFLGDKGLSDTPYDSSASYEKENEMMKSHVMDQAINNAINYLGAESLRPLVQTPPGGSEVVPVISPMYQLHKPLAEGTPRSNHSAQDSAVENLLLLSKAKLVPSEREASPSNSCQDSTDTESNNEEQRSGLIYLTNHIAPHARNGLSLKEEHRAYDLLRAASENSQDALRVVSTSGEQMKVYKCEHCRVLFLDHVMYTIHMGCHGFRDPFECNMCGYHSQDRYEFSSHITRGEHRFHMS
T6 sequence (Q96SW2 whole entry): as the sequence (Q96SW2 whole entry) above
T6 sequence (Q16531 whole entry partner): as the sequence (Q16531 whole entry partner) above
T5 sequence (P48729 whole entry): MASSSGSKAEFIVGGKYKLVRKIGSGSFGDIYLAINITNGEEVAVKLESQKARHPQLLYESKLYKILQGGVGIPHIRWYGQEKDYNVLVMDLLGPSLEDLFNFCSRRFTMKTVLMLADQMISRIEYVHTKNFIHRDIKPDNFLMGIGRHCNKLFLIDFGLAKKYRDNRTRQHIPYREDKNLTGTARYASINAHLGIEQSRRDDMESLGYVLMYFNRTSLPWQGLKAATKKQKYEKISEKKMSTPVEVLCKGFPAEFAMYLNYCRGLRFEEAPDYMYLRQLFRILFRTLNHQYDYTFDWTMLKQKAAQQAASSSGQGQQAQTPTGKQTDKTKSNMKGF
T5 sequence (Q96SW2 whole entry): as the sequence (Q96SW2 whole entry) above
T5 sequence (Q16531 whole entry partner): as the sequence (Q16531 whole entry partner) above
T4 sequence (P30291 whole entry): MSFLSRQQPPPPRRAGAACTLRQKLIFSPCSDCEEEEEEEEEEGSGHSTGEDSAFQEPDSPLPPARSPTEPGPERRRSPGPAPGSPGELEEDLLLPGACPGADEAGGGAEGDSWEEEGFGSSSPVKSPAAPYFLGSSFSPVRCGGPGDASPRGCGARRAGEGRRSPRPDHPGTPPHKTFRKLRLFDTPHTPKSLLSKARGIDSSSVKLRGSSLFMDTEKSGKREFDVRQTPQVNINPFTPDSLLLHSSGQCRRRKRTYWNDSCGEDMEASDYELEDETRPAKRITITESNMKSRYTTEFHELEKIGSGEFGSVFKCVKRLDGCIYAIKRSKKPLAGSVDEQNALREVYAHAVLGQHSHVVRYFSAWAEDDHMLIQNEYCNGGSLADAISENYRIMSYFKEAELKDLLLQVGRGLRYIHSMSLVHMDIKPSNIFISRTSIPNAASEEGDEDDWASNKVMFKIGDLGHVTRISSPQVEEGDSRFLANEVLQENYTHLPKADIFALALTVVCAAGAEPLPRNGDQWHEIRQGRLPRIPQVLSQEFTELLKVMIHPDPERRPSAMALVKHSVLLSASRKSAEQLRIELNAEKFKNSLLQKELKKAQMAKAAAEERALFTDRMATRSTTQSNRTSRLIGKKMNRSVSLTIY
T4 sequence (Q96SW2 whole entry): as the sequence (Q96SW2 whole entry) above
T4 sequence (Q16531 whole entry partner): as the sequence (Q16531 whole entry partner) above
T1 sequence (Q96SW2 whole entry): as the sequence (Q96SW2 whole entry) above
T2 sequence (Q9UKS7 whole entry): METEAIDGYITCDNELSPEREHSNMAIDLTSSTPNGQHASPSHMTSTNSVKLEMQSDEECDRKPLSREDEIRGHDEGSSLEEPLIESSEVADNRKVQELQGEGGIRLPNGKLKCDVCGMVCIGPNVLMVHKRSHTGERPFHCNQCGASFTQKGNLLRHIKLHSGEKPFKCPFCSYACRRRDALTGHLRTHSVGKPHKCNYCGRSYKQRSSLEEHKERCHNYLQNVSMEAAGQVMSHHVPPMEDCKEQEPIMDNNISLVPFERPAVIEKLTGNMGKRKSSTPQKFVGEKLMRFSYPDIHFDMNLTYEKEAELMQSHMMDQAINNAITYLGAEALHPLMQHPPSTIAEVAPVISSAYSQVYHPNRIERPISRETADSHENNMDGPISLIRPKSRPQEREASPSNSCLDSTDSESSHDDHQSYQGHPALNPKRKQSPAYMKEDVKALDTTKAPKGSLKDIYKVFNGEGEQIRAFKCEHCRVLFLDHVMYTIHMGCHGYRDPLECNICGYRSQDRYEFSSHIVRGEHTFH
T2 sequence (Q96SW2 whole entry): as the sequence (Q96SW2 whole entry) above
T2 sequence (Q16531 whole entry partner): as the sequence (Q16531 whole entry partner) above

Row | inhibition at 0.5 µM [3] [%] | inhibition at 2 µM [3] [%] | SMILES | GSPT1 substrate protein remaining % (GSPT1) | IKZF2 substrate protein remaining % (IKZF2) | IKZF3 substrate protein remaining % (IKZF3) | Wee1 substrate protein remaining % (WEE1) | CK1α substrate protein remaining % (CK1α) | IKZF 1 substrate protein remaining % (IKZF1) | inhibition at 0.01 µM [8] [%] | inhibition at 0.5 µM [8] [%] | inhibition at 0.01 µM [10] [%] | inhibition at 0.5 µM [10] [%] | inhibition at 0.01 µM [11] [%] | inhibition at 0.5 µM [11] [%] | inhibition at 0.01 µM [12] [%] | inhibition at 0.5 µM [12] [%] | other results
1 | 40 to 53 | 60 to 80 | O=C1CCC(N2Cc3cc(CN4CCC(c5cccc(F)c5Cl)CC4)ccc3C2=S)C(=O)N1 (centres unmarked) [GT-08330, 3-(5-((4-(2-chloro-3-fluorophenyl)piperidin-1-yl)methyl)-1-thioxoisoindolin-2-yl)piperidine-2,6-dione] | A (0% ≤ substrate protein remaining % ≤ 80%) | A (0% ≤ substrate protein remaining % ≤ 80%) | A (0% ≤ substrate protein remaining % ≤ 80%) | A (0% ≤ substrate protein remaining % ≤ 80%) | A (0% ≤ substrate protein remaining % ≤ 80%) | A (0% ≤ substrate protein remaining % ≤ 80%) | 10 to 20 | 50 to 60 |  |  |  |  |  |  | inhibition at 0.01 µM [1, 13]: -5 to 0%; inhibition at 0.5 µM [1, 14]: 70 to 80%; inhibition at 0.01 µM [2, 13]: 5 to 10%; inhibition at 0.5 µM [2, 14]: 80 to 100%; inhibition at 0.01 µM [4, 13]: 20 to 30%; inhibition at 0.5 µM [4, 14]: 80 to 100%; inhibition at 0.01 µM [5, 13]: -5 to 0%; inhibition at 0.5 µM [5, 14]: 80 to 100%; inhibition at 0.01 µM [6, 13]: 10 to 20%; inhibition at 0.5 µM [6, 14]: 70 to 80%; inhibition at 0.01 µM [7, 13]: 10 to 18%; inhibition at 0.5 µM [7, 14]: 80 to 100%; inhibition at 0.01 µM [9, 13]: 5 to 10%; inhibition at 0.5 µM [9, 14]: 80 to 100%
2 | 60 to 80 | 80 to 100 | Cc1cc2c(C3=CCN(Cc4ccc5c(c4)CN(C4CCC(=O)NC4=O)C5=S)CC3)ncnc2s1 (centres unmarked) [GT-09316, 3-(5-((4-(6-methylthieno[2,3-d]pyrimidin-4-yl)-3,6-dihydropyridin-1(2H)-yl)methyl)-1-thioxoisoindolin-2-yl)piperidine-2,6-dione] | A (0% ≤ substrate protein remaining % ≤ 80%) | B (80%< substrate protein remaining %≤ 100%) | A (0% ≤ substrate protein remaining % ≤ 80%) | B (80%< substrate protein remaining %≤ 100%) | B (80%< substrate protein remaining %≤ 100%) | A (0% ≤ substrate protein remaining % ≤ 80%) |  |  | 5 to 10 | 80 to 100 | 10 to 20 | 80 to 100 | 30 to 40 | 80 to 100 | 
3 | 53 to 60 | 80 to 100 | Cc1sc2ncnc(C3=CCN(Cc4ccc5c(c4)CN(C4CCC(=O)NC4=O)C5=S)CC3)c2c1C (centres unmarked) [GT-09318, 3-(5-((4-(5,6-dimethylthieno[2,3-d]pyrimidin-4-yl)-3,6-dihydropyridin-1(2H)-yl)methyl)-1-thioxoisoindolin-2-yl)piperidine-2,6-dione] | A (0% ≤ substrate protein remaining % ≤ 80%) | B (80%< substrate protein remaining %≤ 100%) | A (0% ≤ substrate protein remaining % ≤ 80%) | A (0% ≤ substrate protein remaining % ≤ 80%) | B (80%< substrate protein remaining %≤ 100%) | B (80%< substrate protein remaining %≤ 100%) |  |  | 10 to 20 | 80 to 100 | 10 to 20 | 80 to 100 | 20 to 30 | 60 to 70 | 
4 | 60 to 80 | 80 to 100 | Cc1nc(C2=CCN(Cc3ccc4c(c3)CN(C3CCC(=O)NC3=O)C4=S)CC2)c2ccsc2n1 (centres unmarked) [GT-09322, 3-(5-((4-(2-methylthieno[2,3-d]pyrimidin-4-yl)-3,6-dihydropyridin-1(2H)-yl)methyl)-1-thioxoisoindolin-2-yl)piperidine-2,6-dione] | A (0% ≤ substrate protein remaining % ≤ 80%) | B (80%< substrate protein remaining %≤ 100%) | B (80%< substrate protein remaining %≤ 100%) | A (0% ≤ substrate protein remaining % ≤ 80%) | B (80%< substrate protein remaining %≤ 100%) | A (0% ≤ substrate protein remaining % ≤ 80%) |  |  | 10 to 20 | 80 to 100 | 5 to 10 | 80 to 100 | 10 to 20 | 80 to 100 | 
5 | 80 to 100 | 80 to 100 | O=C1CCC(N2Cc3cc(CN4CCN(c5nc(Cl)nc6ccsc56)CC4)ccc3C2=S)C(=O)N1 (centres unmarked) [GT-09331, 3-(5-((4-(2-chlorothieno[3,2-d]pyrimidin-4-yl)piperazin-1-yl)methyl)-1-thioxoisoindolin-2-yl)piperidine-2,6-dione] | A (0% ≤ substrate protein remaining % ≤ 80%) | B (80%< substrate protein remaining %≤ 100%) | B (80%< substrate protein remaining %≤ 100%) | B (80%< substrate protein remaining %≤ 100%) | B (80%< substrate protein remaining %≤ 100%) | B (80%< substrate protein remaining %≤ 100%) | 20 to 30 | 40 to 50 |  |  |  |  | 30 to 40 | 50 to 60 | 

Row | SMILES | inhibition at 0.5 µM [3] [%] | inhibition at 2 µM [3] [%] | GSPT1 substrate protein remaining % (GSPT1) | IKZF2 substrate protein remaining % (IKZF2) | IKZF3 substrate protein remaining % (IKZF3) | Wee1 substrate protein remaining % (WEE1) | CK1α substrate protein remaining % (CK1α) | IKZF 1 substrate protein remaining % (IKZF1) | inhibition at 0.01 µM [8] [%] | inhibition at 0.5 µM [8] [%] | inhibition at 0.01 µM [10] [%] | inhibition at 0.5 µM [10] [%] | inhibition at 0.01 µM [11] [%] | inhibition at 0.5 µM [11] [%] | inhibition at 0.01 µM [12] [%] | inhibition at 0.5 µM [12] [%] | other results
6 | O=C1CCC(N2Cc3cc(CN4CC=C(c5ncnc6sccc56)CC4)ccc3C2=S)C(=O)N1 (centres unmarked) [GT-09314, 3-(5-((4-(thieno[2,3-d]pyrimidin-4-yl)-3,6-dihydropyridin-1(2H)-yl)methyl)-1-thioxoisoindolin-2-yl)piperidine-2,6-dione] | 80 to 100 | 80 to 100 | A (0% ≤ substrate protein remaining % ≤ 80%) | B (80%< substrate protein remaining %≤ 100%) | A (0% ≤ substrate protein remaining % ≤ 80%) | A (0% ≤ substrate protein remaining % ≤ 80%) | B (80%< substrate protein remaining %≤ 100%) | A (0% ≤ substrate protein remaining % ≤ 80%) |  |  | 5 to 10 | 80 to 100 | 10 to 20 | 80 to 100 | 5 to 10 | 40 to 50 | 
